Common to all, as to experiment: NCI-60 cell line screen, 48 h
Experiment [1] concerns COLO 205 colon.
The subject of experiment [2] is HT29 colon.
In experiment [3] the test system is KM12 colon.
For experiment [4], the system named is M14 melanoma.
The subject of experiment [5] is MOLT-4 leukemia.
Experiment [6] has as its system OVCAR-3 ovarian.
Experiment [7] relates to OVCAR-5 ovarian.
Experiment [8] deals with RXF 393 renal.
The test system of experiment [9] is T-47D breast.
Experiment [10] deals with EKVX NSCLC.

The source of these data is PubChem BioAssay (NCI).

Where “and” joins values, the source holds several entries; their conditions need not be identical. Equal values may be shown once.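 Test compounds were applied to cells in 96-well plates for 48 hours at 5 doses. GI50 = concentration required for 50% inhibition of growth. TGI denotes the concentration required for complete inhibition of growth.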 Where only a bound is given, the exact number is not on record here.

Turning to `Cc1ccc(NC2=C3CCCCC3OC2=O)cc1` (configuration not stated), the GI50 was 78.1 µM in [1]; 79.8 µM in experiment [2]; above 100 µM in experiment [3]; above 100 µM in [4]; 19.1 µM in [5]; 68.7 µM in experiment [6]. Also, the GI50 is above 100 µM in [7], above 100 µM in experiment [8] and 29.3 µM in experiment [9]. Moreover, the TGI in [1] is above 100 µM; in experiment [2] it was above 100 µM; in experiment [3] it was above 100 µM; in experiment [4], above 100 µM; in experiment [5] it was 86 µM; in experiment [6], above 100 µM. In addition, the TGI in experiment [7], in experiment [8] and in experiment [9] was above 100 µM each time.

With `Cc1nnc2ccnn2c1C`, the GI50 was above 100 µM in experiment [1]; above 100 µM in [3]; above 100 µM in [5]; above 100 µM in experiment [6]; 17.6 µM in experiment [7]; above 100 µM in experiment [9]. Moreover, the TGI was above 100 µM in [1]; 0.962 µM in experiment [10]; above 100 µM in experiment [3]; above 100 µM in experiment [5]; above 100 µM in [6]; 34.6 µM in experiment [7]. Moreover, in [9], the TGI is above 100 µM.

Take `COc1cc(-c2nn(-c3cccc(NC(=O)c4ccccc4)c3)cc2-c2ccncc2)ccc1Cl`: the GI50 in experiment [1] is 0.522 µM; in experiment [2], 0.365 µM; in experiment [3], 0.467 µM; in experiment [4] it was 0.565 µM; in experiment [5], 0.701 µM; in experiment [6], 0.313 µM. In addition, the figures for the GI50 in experiment [7], in experiment [8] and in experiment [9] were 12.8 µM, 0.545 µM and 0.843 µM, respectively. The TGI is 3.23 µM in experiment [1]; above 45 µM in [2]; 96.9 µM in experiment [3]; 12.8 µM in [4]; above 100 µM in experiment [5]; 13.9 µM in experiment [6]. For the same compound, the TGI in [7] was above 100 µM; in experiment [8] it was above 25.2 µM; in [9] it was above 100 µM.

Consider `COc1ccc(Cn2c(Br)c3c(c2Br)-c2nc(N)sc2CC3)cc1`, for which the GI50 was 2.2 µM in [1]; 4.14 µM in experiment [2]; 3.47 µM in experiment [3]; 3.96 µM in experiment [4]; 0.962 µM in experiment [5]; 4.1 µM in [6]. Besides, the GI50 was 16 µM in experiment [7], 1.97 µM in experiment [8] and 3.03 µM in [9]. Besides, the TGI in experiment [1] was found to be 4.42 µM; in experiment [2] it was 13.2 µM; in experiment [3] it was 20.6 µM; in experiment [4] it was 17.6 µM; in experiment [5] it was 21.7 µM; in experiment [6] it was 15.5 µM. For the same compound, the TGI in experiment [7] is 50.5 µM; in [8], 5.05 µM; in experiment [9], 12.8 µM.

As for `C[C@@]1(O)CC[C@]2(C)C3CCCC3[C@H]12` (some centres not stated), the TGI in experiment [1], in experiment [10], in experiment [2], in experiment [3], in experiment [4] and in [5] was above 100 µM throughout. Also, the TGI in [6], in experiment [7] and in [8] was above 100 µM each time.

As for `CN(C)CC1CCCC/C1=N/O` (configuration not stated), the TGI in [1], in [10], in experiment [2], in experiment [3], in experiment [4] and in experiment [5] was above 100 µM each time. Further, the TGI in experiment [6], in experiment [7] and in experiment [8] was above 100 µM throughout.

As for `NC(=S)N/N=C\c1nccc2c(C(F)(F)F)cccc12`, the GI50 is 0.237 µM in experiment [1]; 0.524 µM in experiment [2]; 0.356 µM in [3]; 0.224 µM in experiment [4]; 0.355 µM in experiment [5]; 0.294 µM in experiment [6]. The GI50 is 0.445 µM in experiment [7], 0.251 µM in experiment [8] and 0.335 µM in [9]. The TGI is 10.8 µM in [1]; 16.5 µM in experiment [2]; 16.9 µM in experiment [3]; 0.706 µM in [4]; 15.6 µM in experiment [5]; 10.8 µM in [6]. Also, the TGI in experiment [7] turned out to be 27.6 µM; in [8] it was 2.53 µM; in experiment [9], 25.7 µM.

In the case of `O=C(NC1C=CCC2C(=O)N(c3ccccc3)C(=O)C12)OCc1ccccc1` (configuration not stated), the TGI in experiment [1], in experiment [10], in experiment [2], in [3], in experiment [4] and in experiment [5] was above 100 µM throughout. Besides, the TGI in experiment [6], in experiment [7] and in experiment [8] was above 100 µM throughout.

`O=C(Nc1nc(=S)[nH][nH]1)C(=O)C(C(=O)c1ccc2ccccc2c1)C1OC(=O)c2ccccc21` (configuration not stated): the TGI in experiment [1] was 34.5 µM; in experiment [10], above 100 µM; in experiment [2], above 100 µM; in experiment [3], above 100 µM; in experiment [4], 40.9 µM; in experiment [5] it was 21.1 µM. Further, the TGI in experiment [6] is 67 µM; in experiment [7], above 100 µM; in experiment [8], 26.8 µM.

With `Clc1ccc2cccc3c2c1C1OC3c2ccccc21` (configuration not stated), the TGI in experiment [1], in experiment [10], in experiment [2], in experiment [3], in [4] and in [5] was above 100 µM in each case. The TGI in experiment [6], in experiment [7] and in experiment [8] was above 100 µM throughout.

As to `CC(C)(C)[Si](C)(C)OC1[C@@H](O[Si](C)(C)C(C)(C)C)[C@@H](CNC(=O)NC(=O)C(F)(F)F)O[C@H]1n1cnc2c(NC(=O)Nc3ccccc3)ncnc21` (some centres not stated), the GI50 in [1] is 6.03 µM; in experiment [2], 4.33 µM; in [3], 4.02 µM; in experiment [4], 5.72 µM; in [5], 1.67 µM; in experiment [6], 7.63 µM. Besides, the results for the GI50 in experiment [7], in [8] and in experiment [9] were 7.89 µM, 1.3 µM and 5.64 µM, respectively. Further, the TGI came to 12.8 µM in experiment [1]; 11.1 µM in experiment [2]; 11.4 µM in [3]; 13.2 µM in experiment [4]; 7.03 µM in [5]; 14.5 µM in experiment [6]. The results for the TGI in experiment [7], in [8] and in experiment [9] were 14.6 µM, 4.25 µM and 11.8 µM, respectively.

`O=C1NC(=NCc2ccccc2)S/C1=C\c1ccc2ncccc2c1`: the GI50 in experiment [1], in [2], in experiment [3], in experiment [4], in experiment [5] and in [6] was above 25 µM throughout. Moreover, the GI50 in experiment [7], in [8] and in experiment [9] was above 25 µM throughout. For the same compound, the TGI in experiment [1], in experiment [2], in [3], in [4], in experiment [5] and in [6] was above 25 µM in each case. In addition, the TGI in experiment [7], in [8] and in [9] was above 25 µM each time.

For `Cc1[cH-]c(=O)n(-c2ccccc2)n1.[Au+].[Au].c1ccc([PH+](c2ccccc2)c2ccccc2)cc1.c1ccc([PH+](c2ccccc2)c2ccccc2)cc1`, the GI50 is 25.3 µM in experiment [1]; 23 µM in experiment [10]; 53.5 µM in [2]; 36.7 µM in experiment [3]; 9.12 µM and 9.46 µM in experiment [4]; 36.6 µM in experiment [5]. Moreover, the GI50 is 16.7 µM in experiment [6]; above 100 µM in [7]; 0.756 µM and 6.89 µM in experiment [8]. Moreover, the TGI in experiment [1] is 60.6 µM; in experiment [10], 79.7 µM; in [2], above 100 µM; in experiment [3], above 100 µM; in [4], 41.5 µM; in experiment [5] it was above 100 µM. In addition, the TGI in [6] is 39.1 µM; in [7], above 100 µM; in experiment [8], 3.32 µM and 28.5 µM.

As for `CN1C(=O)C(=O)N2c3ccc(Cl)cc3C3(c4ccccc4)N=CC12O3` (configuration not stated), the TGI in experiment [1] came to 15 µM; in [10] it was 27.6 µM; in experiment [2], 16.1 µM; in experiment [3], 13.7 µM; in [4], 15 µM; in experiment [5], 7.56 µM. Also, the TGI is 14.8 µM in experiment [6], 20 µM in [7] and 6.34 µM in [8].

With `COc1cc2c(cc1OC)-c1cc(OC)c(OC)cc1C(CN(C)C)C2` (configuration not stated), the GI50 in experiment [2], in experiment [3], in [4], in [5], in [6] and in experiment [7] was above 10 µM in each case. Besides, the GI50 in experiment [8] and in [9] was above 10 µM in each case. Also, the TGI in [2], in [3], in [4], in experiment [5], in [6] and in [7] was above 10 µM throughout. Moreover, the TGI in experiment [8] and in [9] was above 10 µM throughout.

Regarding `[O-][Cl+3]([O-])([O-])[O-].[O]=[Ru]=[O].c1ccc(-c2ccccn2)nc1.c1ccc(-c2ccccn2)nc1`, the GI50 in experiment [1], in experiment [10], in experiment [2], in [3], in [4] and in [5] was above 100 µM each time. For the same compound, the GI50 is above 100 µM in experiment [6], above 100 µM in experiment [7] and 39.1 µM in experiment [8]. In addition, the TGI in experiment [1], in experiment [10], in experiment [2], in experiment [3], in experiment [4] and in [5] was above 100 µM each time. Further, the TGI in experiment [6], in experiment [7] and in experiment [8] was above 100 µM throughout.

`COc1c(CC(C)=O)ccc2c1C(=O)c1ccc(C=O)c(OC(C)=O)c1C2=O`: the TGI in [1] came to 31.6 µM; in experiment [10], 56.9 µM; in experiment [2], 37.9 µM; in [3] it was 39.2 µM; in experiment [4], 25.6 µM; in experiment [5] it was 47.6 µM. Further, the TGI was 35.3 µM in experiment [6], 30.3 µM in [7] and 25.4 µM in experiment [8].

Take `Cc1cc(Nc2ccc(C)c(Cl)c2)n2nc(C(F)(F)F)nc2n1`: the GI50 was 23.5 µM in experiment [1]; 26.6 µM in experiment [2]; 27.2 µM in experiment [3]; 28.5 µM in experiment [4]; 19.9 µM in experiment [5]; 22 µM in experiment [6]. Besides, the GI50 in experiment [7] is 38 µM; in experiment [8] it was 19.4 µM; in experiment [9] it was 17.5 µM. Also, the TGI in [1] was 70.1 µM; in experiment [2], above 100 µM; in experiment [3] it was above 100 µM; in experiment [4], 76.5 µM; in experiment [5], 94.3 µM; in experiment [6] it was 75.9 µM. The TGI was above 100 µM in experiment [7], 82.4 µM in experiment [8] and 76 µM in experiment [9].

For the compound `CN(C)C=Nc1nc(=O)n(C2CCC(CO)O2)cc1F` (configuration not stated), the TGI in [1], in [10], in [2], in experiment [3], in experiment [4] and in experiment [5] was above 100 µM in each case. For the same compound, the TGI in [6], in experiment [7] and in experiment [8] was above 100 µM in each case.

Take `Cc1nc(-c2nc(C)c(C(=O)NNC(=O)C[n+]3ccccc3)s2)sc1C(=O)NNC(=O)C[n+]1ccccc1`: the TGI in [1], in experiment [10], in [2], in experiment [3], in experiment [4] and in experiment [5] was above 100 µM in each case. In addition, the TGI in [6], in [7] and in [8] was above 100 µM in each case.
